Reference: patent US11939334B2, “Substituted pyrimido[4,5-b][1,4]diazepines as PLK1 degradation inducers” (UPPTHERA, INC., priority 2021, dated 2024)
pIC50: −log10 of the molar value.

Columns and labels:
PLK1 = molecular target: T1, PLK1 (Homo sapiens, UniProt P53350); assay: Luciferase assay for PLK1 in HeLa LgBit (Plk1-HiBit KI) cell line; format: cell-based; settings: 300 nM compound, luminescence after 9 hours
T1 construct: endogenous in cells; host or cells: HeLa cells stably expressing LgBit, with CRISPR/Cas9 knock-in of HiBit at the endogenous PLK1 locus
T1 sequence (P53350 whole entry): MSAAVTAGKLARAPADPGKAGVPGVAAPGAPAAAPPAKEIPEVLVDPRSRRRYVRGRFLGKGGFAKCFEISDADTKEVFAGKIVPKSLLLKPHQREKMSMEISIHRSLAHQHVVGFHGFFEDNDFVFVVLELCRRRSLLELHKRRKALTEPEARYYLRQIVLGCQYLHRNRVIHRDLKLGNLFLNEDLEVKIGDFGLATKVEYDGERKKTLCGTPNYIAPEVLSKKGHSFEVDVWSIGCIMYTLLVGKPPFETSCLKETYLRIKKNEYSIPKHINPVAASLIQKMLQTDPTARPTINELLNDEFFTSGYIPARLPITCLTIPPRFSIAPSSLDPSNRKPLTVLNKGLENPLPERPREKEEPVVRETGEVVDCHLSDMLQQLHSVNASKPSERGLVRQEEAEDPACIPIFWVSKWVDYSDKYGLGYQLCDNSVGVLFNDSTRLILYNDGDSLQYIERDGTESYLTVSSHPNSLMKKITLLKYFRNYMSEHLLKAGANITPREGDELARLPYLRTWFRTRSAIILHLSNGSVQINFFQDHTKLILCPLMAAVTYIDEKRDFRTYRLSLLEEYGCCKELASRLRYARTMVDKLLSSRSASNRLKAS
Experimental: 2. Luciferase Assay for PLK1
(1) Preparation and Culture of HeLa LgBit (Plk1-HiBit KI) Cell Line
A HeLa cell line in which the LgBit vector was transfected and expressed stably was prepared. Then, after constructing gRNA and donor to express the HiBit amino acid sequence behind the C-terminal of the Plk1 gene, which was inherent in the cell, it was inserted into the cell together with a vector capable of expressing CRISPR/Cas9. Only the cells in which the insertion was completed and knock-in had progressed were selected, sub-cultured and used.
(2) Treatment of Compounds of the Present Invention and Method of Luciferase Assay
In the case of HeLa LgBit (Plk1-HiBit KI), the compounds were treated after being released after thymidine block, and the process was as follows. Thymidine (Sigma-Aldrich Cat. No. T9250-5G) was completely dissolved in DW and used in the experiment. For thymidine block, the products were treated with 2 mM of thymidine and then incubated for 24 hours. For release and chemical treatment, the medium was suctioned and washed with 1×PBS. TrypLE™ was added and incubated in 37° C. CO2 incubator for 5 min. Cells neutralized by adding complete media were counted through a counter. For each well of a 96-well culture plate (SPL), 3.3×10^4 cells and a total medium volume of 150 μL were seeded and incubated in a CO2 incubator.
Each cell line was incubated in a CO2 incubator for 18 hours, and Endurazine was added to each well to make up 4% of the total volume. After adding the compound of the present invention in a 96-well white plate (SPL) to a concentration of 300 nM, the wavelength of the plate reader (BMG Labtech, CLARIOstar Plus) was set to […], and then the luminescence was tracked in real time.
The results are shown in Table 2 below and FIGS. 1 and 2.
In Table 2, Activity represents the ratio of the luminescence value of each Exemplary Compound treatment group to DMSO treatment group (+++: <0.3, ++ <0.6, + <0.7).

H526 cell line = assay: Cell viability assay for H526 cell line; format: cell-based; settings: Homo sapiens, NCI-H526, 120 h; H526 cells, 5 days, EZ-Cytox, 0.46-3000 nM
Experimental: 3. Cell Viability Assay for H526 Cell Line
(1) Culture of NCI-H526 Cell Line
(2) Treatment of Compounds of the Present Invention and Method of Cell Viability Assay
After treating the compound to each well to make the total volume of 200 μL, it was cultured in a CO2 incubator (Thermo Fisher Science, Cat. No. 4111) for 5 days.
The absorbance of the completely cultured sample was measured by setting the wavelength of a plate reader (BMG Labtech, CLARIOstar Plus) to […], and was measured after shaking for 3 minutes in a plate reader before measurement.
In Table 3, Activity represents IC50 value of each Exemplary Compound treatment group to H526 cell line (A: <30 nM, B: <50 nM, C: <100 nM, D: <200 nM, E: <400 nM).

[1] = Cell viability assay for MRC-5 cell line; settings: human
Experimental: Cell Viability Assay for MRC-5 Cell Line
(1) Culture of MRC-5 Cell Line
The MRC-5 cell line was purchased from Korea Cell Line Bank (KCLB), Seoul, Korea. Passage of cultured cells was maintained within P15.
6×10^3 cells were seeded for each well of a 96-well plate (SPL), and the cells were cultured in total volume of 150 μL.
Each well was mixed with a medium and treated, and the volume was set to 50 μL, so that the total volume of each well was 200 μL. Then, it was cultured in 37° C.
The following compounds were used as comparative examples, and the cell viability assay was performed in the same manner as in the compounds of Examples.
(3) Cytotoxicity Experiment
After treating EZ-Cytox (DOGEN, Cat. NO. EZ-3000, Lot. No. DLS2112) 20 μL in each well of completely cultured plate, it was cultured in 37° C. CO2 incubator for 4 hours. […] The data were converted into graphs using the Prism (ver. 9) program.

| Activity: ratio of the luminescence value of each Exemplary Compound treatment group to DMSO treatment group (PLK1) | SMILES | pIC50 (H526 cell line) | IC50 at 5 days ([1]; MRC-5 cells (normal cell line)) [µM] | IC50 at 5 days [1] [µM] |
| --- | --- | --- | --- | --- |
| +++ (+++: <0.3) | COc1cc(C(=O)NC2CC(N(C)CC3CCN(c4ccc(C5CCC(=O)NC5=O)cc4F)CC3)C2)ccc1Nc1ncc2c(n1)N(C(C)C)CC(F)(F)C(=O)N2C (stereo not drawn) [Compound 44, 4-((7,7-difluoro-9-isopropyl-5-methyl-6-oxo-6,7,8,9-tetrahydro-5H-pyrimido[4,5-b][1,4]diazepin-2-yl)amino)-N-(3-(((1-(4-(2,6-dioxopiperidin-3-yl)-2-fluorophenyl)piperidin-4-yl)methyl)(methyl)amino)cyclobutyl)-3-methoxybenzamide] | > 7.52 | > 10 |  |
| ++ (++ <0.6) | COc1cc(C(=O)NC2CCN(C(=O)CCN3CCN(c4ccc(C5CCC(=O)NC5=O)cc4)CC3)CC2)ccc1Nc1ncc2c(n1)N(C(C)C)CC1(CC1)C(=O)N2C (stereo not drawn) [Compound 3, N-(1-(3-(4-(4-(2,6-dioxopiperidin-3-yl)phenyl)piperazin-1-yl)propanoyl)piperidin-4-yl)-4-((9′-isopropyl-5′-methyl-6′-oxo-5′,6′,8′,9′-tetrahydrospiro[cyclopropane-1,7′-pyrimido[4,5-b][1,4]diazepin]-2′-yl)amino)-3-methoxybenzamide] | > 7.00 | > 10 |  |
| ++ (++ <0.6) | COc1cc(C(=O)NN2CCC(F)(CN3CCN(c4ccc(C5CCC(=O)NC5=O)cc4F)CC3)CC2)ccc1Nc1ncc2c(n1)N(C(C)C)CC(F)(F)C(=O)N2C (stereo not drawn) [Compound 18, 4-((7,7-difluoro-9-isopropyl-5-methyl-6-oxo-6,7,8,9-tetrahydro-5H-pyrimido[4,5-b][1,4]diazepin-2-yl)amino)-N-(4-((4-(4-(2,6-dioxopiperidin-3-yl)-2-fluorophenyl)piperazin-1-yl)methyl)-4-fluoropiperidin-1-yl)-3-methoxybenzamide] | > 7.00 | > 10 |  |
| ++ (++ <0.6) | COc1cc(C(=O)NC2CCN(C(=O)CCN3CCN(c4cccc(C5CCC(=O)NC5=O)c4)CC3)CC2)ccc1Nc1ncc2c(n1)N(C(C)C)CC1(CC1)C(=O)N2C (stereo not drawn) [Compound 5, N-(1-(3-(4-(3-(2,6-dioxopiperidin-3-yl)phenyl)piperazin-1-yl)propanoyl)piperidin-4-yl)-4-((9′-isopropyl-5′-methyl-6′-oxo-5′,6′,8′,9′-tetrahydrospiro[cyclopropane-1,7′-pyrimido[4,5-b][1,4]diazepin]-2′-yl)amino)-3-methoxybenzamide] | > 6.70 | > 10 |  |
| ++ (++ <0.6) | COc1cc(C(=O)NN2CCN(C(=O)CCC3CCN(c4ccc(C5CCC(=O)NC5=O)cc4F)CC3)CC2)ccc1Nc1ncc2c(n1)N(C(C)C)CC(F)(F)C(=O)N2C (stereo not drawn) [Compound 11, 4-((7,7-difluoro-9-isopropyl-5-methyl-6-oxo-6,7,8,9-tetrahydro-5H-pyrimido[4,5-b][1,4]diazepin-2-yl)amino)-N-(1-(3-(1-(4-(2,6-dioxopiperidin-3-yl)-2-fluorophenyl)piperidin-4-yl)propanoyl)piperazin-1-yl)-3-methoxybenzamide] | > 7.30 | > 10 |  |
| ++ (++ <0.6) | COc1cc(C(=O)NC2CCN(C(=O)CCN3CCN(c4ccc(C5CCC(=O)NC5=O)cc4)CC3)CC2)ccc1Nc1ncc2c(n1)N(C(C)C)CC(F)(F)C(=O)N2C (stereo not drawn) [Compound 2, 4-((7,7-difluoro-9-isopropyl-5-methyl-6-oxo-6,7,8,9-tetrahydro-5H-pyrimido[4,5-b][1,4]diazepin-2-yl)amino)-N-(1-(3-(4-(4-(2,6-dioxopiperidin-3-yl)phenyl)piperazin-1-yl)propanoyl)piperidin-4-yl)-3-methoxybenzamide] | > 7.52 | > 10 |  |
| +++ (+++: <0.3) | COc1cc(C(=O)NC2CCN(C(=O)CCCOc3cccc(C4CCC(=O)NC4=O)c3)CC2)ccc1Nc1ncc2c(n1)N(C(C)C)CC(F)(F)C(=O)N2C (stereo not drawn) [Compound 1, 4-((7,7-difluoro-9-isopropyl-5-methyl-6-oxo-6,7,8,9-tetrahydro-5H-pyrimido[4,5-b][1,4]diazepin-2-yl)amino)-N-(1-(4-(3-(2,6-dioxopiperidin-3-yl)phenoxy)butanoyl)piperidin-4-yl)-3-methoxybenzamide] | > 7.30 | > 10 |  |
| +++ (+++: <0.3) | COc1cc(C(=O)NN2CC3(CCN(CC4CCN(c5ccc(C6CCC(=O)NC6=O)cc5F)CC4)CC3)C2)ccc1Nc1ncc2c(n1)N(C(C)C)CC(F)(F)C(=O)N2C (stereo not drawn) [Compound 23, 4-((7,7-difluoro-9-isopropyl-5-methyl-6-oxo-6,7,8,9-tetrahydro-5H-pyrimido[4,5-b][1,4]diazepin-2-yl)amino)-N-(7-((1-(4-(2,6-dioxopiperidin-3-yl)-2-fluorophenyl)piperidin-4-yl)methyl)-2,7-diazaspiro[3.5]nonan-2-yl)-3-methoxybenzamide] | > 7.52 | > 10 |  |

| SMILES | Activity: ratio of the luminescence value of each Exemplary Compound treatment group to DMSO treatment group (PLK1) | pIC50 (H526 cell line) | IC50 at 5 days ([1]; MRC-5 cells (normal cell line)) [µM] | IC50 at 5 days [1] [µM] |
| --- | --- | --- | --- | --- |
| COc1cc(C(=O)OC2CC3(CCN(CC4CCN(c5ccc(C6CCC(=O)NC6=O)cc5F)CC4)CC3)C2)ccc1Nc1ncc2c(n1)N(C(C)C)CC(F)(F)C(=O)N2C (stereo not drawn) [Compound 25, 7-((1-(4-(2,6-dioxopiperidin-3-yl)-2-fluorophenyl)piperidin-4-yl)methyl)-7-azaspiro[3.5]nonan-2-yl 4-((7,7-difluoro-9-isopropyl-5-methyl-6-oxo-6,7,8,9-tetrahydro-5H-pyrimido[4,5-b][1,4]diazepin-2-yl)amino)-3-methoxybenzoate] | ++ (++ <0.6) | > 6.70 |  | > 10 |
| COc1cc(C(=O)NC2CC3(CCN(CC4CCN(c5ccc(C6CCC(=O)NC6=O)cc5F)C(C)C4)CC3)C2)ccc1Nc1ncc2c(n1)N(C(C)C)CC(F)(F)C(=O)N2C (stereo not drawn) [Compound 32, 4-((7,7-difluoro-9-isopropyl-5-methyl-6-oxo-6,7,8,9-tetrahydro-5H-pyrimido[4,5-b][1,4]diazepin-2-yl)amino)-N-(7-((1-(4-(2,6-dioxopiperidin-3-yl)-2-fluorophenyl)-2-methylpiperidin-4-yl)methyl)-7-azaspiro[3.5]nonan-2-yl)-3-methoxybenzamide] | +++ (+++: <0.3) | > 7.52 |  | > 10 |
| COc1cc(C(=O)NC2CC3(CCN(CC4CCN(c5ccc(C6CCC(=O)NC6=O)cc5F)CC4)CC3)C2)ccc1Nc1ncc2c(n1)N(C(C)C)CC(F)(F)C(=O)N2C (stereo not drawn) [Compound 13, 4-((7,7-difluoro-9-isopropyl-5-methyl-6-oxo-6,7,8,9-tetrahydro-5H-pyrimido[4,5-b][1,4]diazepin-2-yl)amino)-N-(7-((1-(4-(2,6-dioxopiperidin-3-yl)-2-fluorophenyl)piperidin-4-yl)methyl)-7-azaspiro[3.5]nonan-2-yl)-3-methoxybenzamide] | ++ (++ <0.6) | > 7.52 |  | > 10 |
